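These data come from cells grown in 96-well plates and exposed to compound for 48 hours at five concentrations. The concentration for 50% growth inhibition is given as GI50.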 Active and inactive are the calls of the source. No stated cut-off is given here; in the data, active = GI50 up to about 1.1 µM and inactive = higher.
Tests used:
Test in all cases: growth of human tumour cells (NCI), 48 h
[1] = test system: HL-60
[2] = test system: DU-145
[3] = test system: TK-10
[4] = test system: SR
[5] = test system: MDA-MB-435
[6] = test system: NCI-H460
[7] = test system: PC-3
[8] = test system: SK-MEL-5
[9] = test system: SNB-19
[10] = test system: SK-MEL-2
[11] = test system: BT-549
[12] = test system: NCI-H522
[13] = test system: T47D
[14] = test system: A549
[15] = test system: LOX IMVI
[16] = test system: CAKI-1
[17] = test system: A498
[18] = test system: SK-OV-3
[19] = test system: RPMI-8226
[20] = test system: HCT-15

C=CCn1c(-c2ccc(Cl)cc2Cl)cs/c1=N\c1c(C)n(C)n(-c2ccccc2)c1=O
GI50 [1]: 6.11 µM (inactive) | GI50 [2]: 13.2 µM (inactive) | GI50 [3]: 12.3 µM (inactive) | GI50 [4]: 5.36 µM (inactive) | GI50 [5]: 10.9 µM (inactive) | GI50 [6]: 12.9 µM (inactive) | GI50 [7]: 5.53 µM (inactive) | GI50 [8]: 3.04 µM (inactive) | GI50 [9]: 11.1 µM (inactive) | GI50 [10]: 14.7 µM (inactive) | GI50 [11]: 12.9 µM (inactive) | GI50 [12]: 12.2 µM (inactive) | GI50 [13]: 3.12 µM (inactive) | GI50 [14]: 9.44 µM (inactive) | GI50 [15]: 9.53 µM (inactive) | GI50 [16]: 14.4 µM (inactive) | GI50 [17]: 12.4 µM (inactive) | GI50 [18]: 5.04 µM (inactive) | GI50 [19]: 7.19 µM (inactive) | GI50 [20]: 13.7 µM

CC(C)C(Cl)CCC(C)(Cl)C(=O)CBr (stereo not given)
GI50 [1]: 0.425 µM (active) | GI50 [2]: 17.8 µM (inactive) | GI50 [3]: 5.83 µM (inactive) | GI50 [4]: 0.845 µM (active) | GI50 [5]: 4.18 µM (inactive) | GI50 [6]: 16.1 µM (inactive) | GI50 [7]: 8.3 µM (inactive) | GI50 [8]: 3.24 µM (inactive) | GI50 [9]: 29.6 µM (inactive) | GI50 [10]: 8.32 µM (inactive) | GI50 [11]: 8.55 µM (inactive) | GI50 [12]: 1.06 µM (active) | GI50 [13]: 2.44 µM (inactive) | GI50 [14]: 20.8 µM (inactive) | GI50 [15]: 0.776 µM (active) | GI50 [16]: 6.1 µM (inactive) | GI50 [17]: 15 µM (inactive) | GI50 [18]: 20 µM (inactive) | GI50 [19]: 0.634 µM (active) | GI50 [20]: 2.99 µM

COc1cc(C(N)=O)cc(NC(=O)/C=C/c2ccccc2)c1OC
GI50 [1]: > 100 µM (inactive) | GI50 [2]: > 100 µM (inactive) | GI50 [3]: > 100 µM (inactive) | GI50 [4]: 74.8 µM (inactive) | GI50 [5]: > 100 µM (inactive) | GI50 [6]: > 100 µM (inactive) | GI50 [7]: > 100 µM (inactive) | GI50 [8]: 64.7 µM (inactive) | GI50 [9]: 27.7 µM (inactive) | GI50 [10]: > 100 µM (inactive) | GI50 [11]: > 100 µM (inactive) | GI50 [12]: 64.9 µM (inactive) | GI50 [13]: 71.1 µM (inactive) | GI50 [14]: > 100 µM (inactive) | GI50 [15]: > 100 µM (inactive) | GI50 [16]: > 100 µM (inactive) | GI50 [17]: > 100 µM (inactive) | GI50 [18]: 49.4 µM (inactive) | GI50 [19]: > 100 µM (inactive) | GI50 [20]: > 100 µM

CCN(CC)CCNc1c2ccccc2nc2cccc([N+](=O)[O-])c12
GI50 [1]: 0.046 µM (active) | GI50 [2]: 0.0031 µM (active) | GI50 [3]: 0.0288 µM (active) | GI50 [4]: 0.00434 µM (active) | GI50 [5]: 0.00164 µM (active) | GI50 [6]: 0.00622 µM (active) | GI50 [7]: 0.00301 µM (active) | GI50 [8]: 0.00902 µM (active) | GI50 [9]: 0.0186 µM (active) | GI50 [10]: 0.0133 µM (active) | GI50 [11]: 0.005 µM (active) | GI50 [12]: 0.00434 µM (active) | GI50 [13]: 0.0101 µM (active) | GI50 [14]: 0.00826 µM (active) | GI50 [15]: 0.0225 µM (active) | GI50 [16]: 0.0158 µM (active) | GI50 [17]: 0.00782 µM (active) | GI50 [18]: 0.0343 µM (active) | GI50 [19]: 0.00659 µM (active) | GI50 [20]: 0.00701 µM

CC(=O)OCC(=O)O[C@@H]1[C@H]2[C@@H](OC(=O)c3ccccc3)[C@@H](C)C[C@]2(O)[C@H](OC(C)=O)[C@@]2(C)C[C@]1(OC(C)=O)C[C@H]1C(=O)C(C)(C)[C@@H](OC(C)=O)[C@@H]12
GI50 [1]: 2.77 µM (inactive) | GI50 [2]: > 25 µM (inactive) | GI50 [3]: > 25 µM (inactive) | GI50 [4]: > 25 µM (inactive) | GI50 [5]: 10.8 µM (inactive) | GI50 [6]: 0.991 µM (active) | GI50 [7]: 22.4 µM (inactive) | GI50 [8]: 9.46 µM (inactive) | GI50 [9]: > 25 µM (inactive) | GI50 [10]: > 25 µM (inactive) | GI50 [11]: > 25 µM (inactive) | GI50 [12]: > 25 µM (inactive) | GI50 [13]: > 25 µM (inactive) | GI50 [14]: 3.66 µM (inactive) | GI50 [15]: > 25 µM (inactive) | GI50 [16]: 17.1 µM (inactive) | GI50 [17]: 13.4 µM (inactive) | GI50 [18]: > 25 µM (inactive) | GI50 [19]: 17.9 µM (inactive) | GI50 [20]: > 25 µM

O=C(CNc1ccc2c(=S)c3ccccc3[nH]c2c1)Nc1ccccc1-c1ccccc1NC(=O)CNc1ccc2c(=S)c3ccccc3[nH]c2c1
GI50 [1]: 2.99 µM (inactive) | GI50 [2]: 18.3 µM (inactive) | GI50 [3]: 26.1 µM (inactive) | GI50 [4]: 6.01 µM (inactive) | GI50 [5]: 24 µM (inactive) | GI50 [6]: 17.1 µM (inactive) | GI50 [7]: 19.4 µM (inactive) | GI50 [8]: 15.2 µM (inactive) | GI50 [9]: 17.2 µM (inactive) | GI50 [10]: 15.6 µM (inactive) | GI50 [11]: 23.8 µM (inactive) | GI50 [12]: 6.38 µM (inactive) | GI50 [13]: 15.6 µM (inactive) | GI50 [14]: 24.3 µM (inactive) | GI50 [15]: 19.9 µM (inactive) | GI50 [16]: 30.1 µM (inactive) | GI50 [17]: 25.2 µM (inactive) | GI50 [18]: 26.3 µM (inactive) | GI50 [19]: 8.75 µM (inactive) | GI50 [20]: 19.4 µM

O=C(c1ccc2ccccc2c1)N(Cc1cccnc1)C(=S)N(Cc1cccnc1)C(=O)c1ccc2ccccc2c1
GI50 [1]: 40.8 µM (inactive) | GI50 [2]: 27 µM (inactive) | GI50 [3]: 31.1 µM (inactive) | GI50 [4]: 45.2 µM (inactive) | GI50 [5]: 34 µM (inactive) | GI50 [6]: 30.6 µM (inactive) | GI50 [7]: 28.3 µM (inactive) | GI50 [8]: 20.6 µM (inactive) | GI50 [9]: 37.2 µM (inactive) | GI50 [10]: 25.6 µM (inactive) | GI50 [11]: 17 µM (inactive) | GI50 [12]: 37.4 µM (inactive) | GI50 [13]: 26.3 µM (inactive) | GI50 [14]: 39.3 µM (inactive) | GI50 [15]: 19 µM (inactive) | GI50 [16]: 22.2 µM (inactive) | GI50 [17]: 32.9 µM (inactive) | GI50 [18]: 46.3 µM (inactive) | GI50 [19]: 32.9 µM (inactive) | GI50 [20]: 32.1 µM
